This note sets out measurements from ChEMBL document CHEMBL4177586, “Small molecule adjuvants that suppress both chromosomal and mcr-1 encoded colistin-resistance and amplify colistin efficacy in polymyxin-susceptible bacteria” (Bioorg Med Chem, 2017).

SMILES strings stand for the structures. Converted amounts (≈) assume the structure as drawn. The source made the active and inactive calls. The rule behind the calls is not given here.

Data set [1] concerns Klebsiella pneumoniae. The data set can be described thus: Toxicity against Klebsiella pneumoniae 2210291 expressing mcr1 gene incubated for overnight duration by CLSI based method. To be noted: in vivo. It counts as organism-based.
Data set [2] relates to Klebsiella pneumoniae. The data set can be described thus: Potentiation of colistin-induced antimicrobial activity against Klebsiella pneumoniae 2210291 expressing mcr1 gene assessed as colistin MIC at 30 uM incubated for overnight duration by CLSI based method (reference value: 16 ug/ml). Format: functional.
The subject of data set [3] is Acinetobacter baumannii. The experiment in a line: Potentiation of colistin-induced antimicrobial activity against Acinetobacter baumannii SM1536 expressing mcr1 gene assessed as colistin MIC at 15 uM incubated for overnight duration by CLSI based method (reference value: 64 ug/ml). Format: functional.
The subject of data set [4] is Acinetobacter baumannii. The data set can be described thus: Potentiation of colistin-induced antimicrobial activity against Acinetobacter baumannii SM1536 expressing mcr1 gene assessed as reduction in colistin MIC at 30 uM incubated for overnight duration by CLSI based method relative to colistin alone control. Format: functional.
In data set [5] the test system is Klebsiella pneumoniae. The experiment in a line: Potentiation of colistin-induced antimicrobial activity against Klebsiella pneumoniae 2210291 expressing mcr1 gene assessed as reduction in colistin MIC at 15 uM incubated for overnight duration by CLSI based method relative to colistin alone control. It counts as functional.
In data set [6] the test system is Acinetobacter baumannii. The experiment in a line: Toxicity against Acinetobacter baumannii ATCC 17978 incubated for overnight duration by CLSI based method. To be noted: in vivo. It counts as organism-based.
The test system of data set [7] is Acinetobacter baumannii. The experiment in a line: Reduction in lipid A modification in Acinetobacter baumannii ATCC 17978 at 30 uM incubated for 24 hrs by MALDI-TOF mass spectrometry. Format: functional, organism-based.
Data set [8] relates to Escherichia coli. The experiment in a line: Potentiation of colistin-induced antimicrobial activity against Escherichia coli YD626 assessed as colistin MIC at 30 uM incubated for overnight duration by CLSI based method (reference value: 1 ug/ml). Format: functional.
In data set [9] the test system is Acinetobacter baumannii. The experiment in a line: Toxicity against Acinetobacter baumannii ATCC 17978 expressing mcr1 gene incubated for overnight duration by CLSI based method. To be noted: in vivo. Format: organism-based.
The test system of data set [10] is Acinetobacter baumannii. The experiment in a line: Toxicity against Acinetobacter baumannii SM1536 expressing mcr1 gene incubated for overnight duration by CLSI based method. To be noted: in vivo. Format: organism-based.
Data set [11] deals with Escherichia coli. The experiment in a line: Toxicity against Escherichia coli ATCC 25922 expressing mcr1 gene incubated for overnight duration by CLSI based method. It counts as organism-based. To be noted: in vivo.
The test system of data set [12] is Escherichia coli. The experiment in a line: Toxicity against Escherichia coli YD626 expressing mcr1 gene incubated for overnight duration by CLSI based method. It counts as organism-based. To be noted: in vivo.
Data set [13] has as its system Acinetobacter baumannii. The experiment in a line: Toxicity against multidrug resistant Acinetobacter baumannii 5075 incubated for overnight duration by CLSI based method. Format: organism-based. To be noted: in vivo.
Data set [14] has as its system Acinetobacter baumannii. The experiment in a line: Potentiation of colistin-induced antimicrobial activity against Acinetobacter baumannii SM1536 expressing mcr1 gene assessed as colistin MIC at 60 uM incubated for overnight duration by CLSI based method (reference value: 64 ug/ml). It counts as functional.
Data set [15] has as its system Escherichia coli. The experiment in a line: Potentiation of colistin-induced antimicrobial activity against Escherichia coli YD626 expressing mcr1 gene assessed as colistin MIC at 60 uM incubated for overnight duration by CLSI based method (reference value: 4 ug/ml). Format: functional.
Data set [16] relates to Acinetobacter baumannii. The data set can be described thus: Potentiation of colistin-induced antimicrobial activity against Acinetobacter baumannii SM1536 expressing mcr1 gene assessed as reduction in colistin MIC at 60 uM incubated for overnight duration by CLSI based method relative to colistin alone control. It counts as functional.
The test system of data set [17] is Escherichia coli. The experiment in a line: Potentiation of colistin-induced antimicrobial activity against Escherichia coli YD626 expressing mcr1 gene assessed as reduction in colistin MIC at 60 uM incubated for overnight duration by CLSI based method relative to colistin alone control. Format: functional.
The subject of data set [18] is Acinetobacter baumannii. The experiment in a line: Potentiation of colistin-induced antimicrobial activity against colistin-resistant Acinetobacter baumannii PM3941 assessed as colistin MIC at 60 uM incubated for overnight duration by CLSI based method (reference value: 512 ug/ml). Format: functional.
Data set [19] has as its system Acinetobacter baumannii. The data set can be described thus: Potentiation of colistin-induced antimicrobial activity against colistin-resistant Acinetobacter baumannii PM4119 assessed as colistin MIC at 60 uM incubated for overnight duration by CLSI based method (reference value: 1024 ug/ml). Format: functional.
Data set [20] concerns Klebsiella pneumoniae. The experiment in a line: Potentiation of colistin-induced antimicrobial activity against colistin-resistant Klebsiella pneumoniae C3 assessed as colistin MIC at 60 uM incubated for overnight duration by CLSI based method (reference value: 512 ug/ml). Format: functional.
In data set [21] the test system is Acinetobacter baumannii. The data set can be described thus: Potentiation of colistin-induced antimicrobial activity against colistin-resistant Acinetobacter baumannii PM3941 assessed as colistin MIC at 30 uM incubated for overnight duration by CLSI based method (reference value: 512 ug/ml). It counts as functional.
In data set [22] the test system is Acinetobacter baumannii. The data set can be described thus: Potentiation of colistin-induced antimicrobial activity against colistin-resistant Acinetobacter baumannii PM3942 assessed as colistin MIC at 30 uM incubated for overnight duration by CLSI based method (reference value: 512 ug/ml). It counts as functional.
Data set [23] concerns Acinetobacter baumannii. The experiment in a line: Potentiation of colistin-induced antimicrobial activity against colistin-resistant Acinetobacter baumannii PM4112 assessed as colistin MIC at 30 uM incubated for overnight duration by CLSI based method (reference value: 1024 ug/ml). It counts as functional.
The test system of data set [24] is Klebsiella pneumoniae. The data set can be described thus: Potentiation of colistin-induced antimicrobial activity against colistin-resistant Klebsiella pneumoniae B9 assessed as colistin MIC at 30 uM incubated for overnight duration by CLSI based method (reference value: 512 ug/ml). Format: functional.
In data set [25] the test system is Klebsiella pneumoniae. The data set can be described thus: Potentiation of colistin-induced antimicrobial activity against colistin-resistant Klebsiella pneumoniae C5 assessed as colistin MIC at 30 uM incubated for overnight duration by CLSI based method (reference value: 128 ug/ml). Format: functional.
In data set [26] the test system is Acinetobacter baumannii. The data set can be described thus: Potentiation of colistin-induced antimicrobial activity against colistin-resistant Acinetobacter baumannii PM3942 assessed as colistin MIC at 15 uM incubated for overnight duration by CLSI based method (reference value: 512 ug/ml). It counts as functional.
The test system of data set [27] is Acinetobacter baumannii. The experiment in a line: Potentiation of colistin-induced antimicrobial activity against colistin-resistant Acinetobacter baumannii PM4112 assessed as colistin MIC at 15 uM incubated for overnight duration by CLSI based method (reference value: 1024 ug/ml). Format: functional.
Data set [28] has as its system Acinetobacter baumannii. The data set can be described thus: Potentiation of colistin-induced antimicrobial activity against colistin-resistant Acinetobacter baumannii PM4119 assessed as colistin MIC at 15 uM incubated for overnight duration by CLSI based method (reference value: 1024 ug/ml). It counts as functional.
For data set [29], the system named is Acinetobacter baumannii. The experiment in a line: Potentiation of colistin-induced antimicrobial activity against colistin-resistant Acinetobacter baumannii PM4119 assessed as reduction in colistin MIC at 60 uM incubated for overnight duration by CLSI based method relative to colistin alone control. Format: functional.
For data set [30], the system named is Klebsiella pneumoniae. The data set can be described thus: Potentiation of colistin-induced antimicrobial activity against colistin-resistant Klebsiella pneumoniae C3 assessed as reduction in colistin MIC at 30 uM incubated for overnight duration by CLSI based method relative to colistin alone control. It counts as functional.
Data set [31] has as its system Acinetobacter baumannii. The data set can be described thus: Potentiation of colistin-induced antimicrobial activity against colistin-resistant Acinetobacter baumannii PM3941 assessed as reduction in colistin MIC at 15 uM incubated for overnight duration by CLSI based method relative to colistin alone control. Format: functional.
Data set [32] concerns Acinetobacter baumannii. The data set can be described thus: Potentiation of colistin-induced antimicrobial activity against colistin-resistant Acinetobacter baumannii PM3942 assessed as reduction in colistin MIC at 15 uM incubated for overnight duration by CLSI based method relative to colistin alone control. It counts as functional.
Data set [33] deals with Klebsiella pneumoniae. The experiment in a line: Potentiation of colistin-induced antimicrobial activity against colistin-resistant Klebsiella pneumoniae C5 assessed as reduction in colistin MIC at 15 uM incubated for overnight duration by CLSI based method relative to colistin alone control. Format: functional.

In the case of `CCCCCCc1ccc(-c2cn(C(C)C)c(N)n2)cc1`, the MIC in data set [1] was above 200 µM; in [2], 0.5 µg/mL; in [3] it was 8 µg/mL; in data set [6], 200 µM (≈ 57.1 µg/mL); in data set [8], 0.00049 µg/mL; in data set [9] it was above 200 µM. Besides, the MIC in data set [10], in [11] and in data set [12] was above 200 µM throughout. Further, the “fold change (FC)” value is reported as 64 in [4] and 2 in data set [5]. Moreover, the outcome in data set [7] was Active.
`CCCCCCc1ccc(-c2cn(CC)c(N)n2)cc1`: the MIC is above 200 µM in data set [1]; 200 µM (≈ 54.3 µg/mL) in data set [13]; 0.125 µg/mL in data set [2]; 8 µg/mL in data set [3]; 100 µM (≈ 27.1 µg/mL) in data set [6]; 0.00049 µg/mL in data set [8]. For the same compound, the MIC in data set [9] was above 200 µM; in data set [10] it was above 200 µM; in data set [11], 50 µM (≈ 13.6 µg/mL); in [12], 100 µM (≈ 27.1 µg/mL). Besides, the “fold change (FC)” value in data set [4] is given as 256; in data set [5] it was 4.
Regarding `CCCCCc1ccc(C(=O)NCCn2cc(CCCCCc3cnc(N)n3Cc3ccc(CCCC)cc3)nn2)cc1`, the MIC was 0.25 µg/mL in data set [2]; 8 µg/mL in [3]; above 200 µM in [6]; 1 µg/mL in [14]; below 0.002 µg/mL in data set [15]; 8 µg/mL in [18]. The MIC in data set [19] is 2 µg/mL; in data set [20], 8 µg/mL; in data set [21], 16 µg/mL; in data set [22] it was 16 µg/mL; in data set [23], 16 µg/mL; in data set [24], 8 µg/mL. Also, the MIC in data set [25] is 4 µg/mL; in data set [26], 32 µg/mL; in data set [27], 32 µg/mL; in data set [28], 16 µg/mL; in [8] it was below 0.00049 µg/mL. In addition, the “fold change (FC)” value in data set [4] is listed as 32; in [5], 16; in data set [16] it was 64; in [17], above 2048; in [29] it was 512; in data set [30] it was 32. Further, the results for the “fold change (FC)” value in data set [31], in data set [32] and in data set [33] were 16, 16 and 4, respectively.
